This note sets out measurements from patent US9513294B2, “Megastokes amino-triazolyl-BODIPY compounds and applications to live neuron staining and human serum albumin FA1 drug site probing” (National University of Singapore, priority 2012, dated 2016).

“Also recorded” adds a separate entry of the source.

Data set [1] is described as follows: Effect of solvent viscosity on fluorescence intensity (molecular rotor). The format is physicochemical. The following applies: 100 μM, rt, solvents of similar polarity. How it is done: The fluorescence spectra of compound (BDC-9) in different solvents of similar polarities but covering a range of viscosities were analyzed. […] Increased solvent viscosity reduces bond rotation at positions 3 and 5 of the BODIPY core, which, without being bound to theory, minimizes non-radiative energy loss and leads to higher quantum yields (24).

For data set [2], the system named is serum albumins from rat (RSA), porcine (PSA), rabbit (RbSA), sheep (SSA) and bovine (BSA). Kind of data set: Species selectivity: fluorescence response to serum albumins of different species. The class given is binding. The following applies: 10 μM, albumins 1.2×10^−4 to 4 mg/mL. The procedure: FIGS. 7a and 7b show species selectivity of BDC-9. […] FIG. 7b is a photographic image of BDC-9 (10 μM) mixed with respective albumins. Irradiation with a handheld UV lamp at 365 nm.
The selectivity of BDC-9 towards serum albumins from different species was investigated. Serum albumins represent a family of proteins with a high degree of similarity in their primary sequence across various species (˜75% homology) (34,39,40,62). […] The fluorescence response of BDC-9 was evaluated against serial concentrations of serum albumins from rat (RSA), porcine (PSA), rabbit (RbSA), sheep (SSA) and bovine (BSA).

The target of data set [3] is T1, HSA (Homo sapiens, UniProt P02768). As to the kind of experiment: Quantification of HSA in spiked urine samples. The following applies: urine spiked with HSA up to 1 mg/mL. How it is done: HSA (0 to 1 mg/mL) was added to 10% urine from healthy individuals in phosphate buffer (pH=7.3). BDC-9 was added at 10 μM concentration; λexc.: 460 nm, λem.: 575 nm; values represented as means (n=3) and error bars as standard deviations; linear regression: R^2=0.998.
In order to examine the selectivity and sensitivity of BDC-9 in complex matrices, BDC-9 was utilized to quantify the amount of HSA in urine samples. Microalbuminuria, which involves an albumin excretion rate of 15 to 40 μg/mL (80, 81), is a well-established cardiovascular risk marker and an indication of liver and renal disease (32,33). The fluorescence response of BDC-9 was analyzed in urine that was spiked with different amounts of HSA, up to 1 mg/mL.

For data set [4], the target named is T1, HSA. Kind of data set: Determination of dissociation constant with HSA (fluorescence titration, one-site model). The note with it: HSA 10 μM, one-site specific binding model. How it is done:
HSA (10 μM) was titrated against serial concentrations of BDC-9 (0.47 to 60 μM) and the fluorescence intensities were measured at 575 nm (λexc=460 nm). The fluorescence intensity of bound BDC-9 at each concentration was determined using the equation:
[formula] where F and F0 are the fluorescence intensities of a given concentration of BDC-9 with and without HSA respectively. Fsat is the fluorescence intensity at the same concentration of BDC-9 when fully bound.

A short description of data set [5]: Absorbance and fluorescence emission spectra (SpectraMax M2). The format is physicochemical. The method in brief:
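Spectroscopic data, including quantum yields, were recorded with a SpectraMax M2 instrument and analysed in GraphPrism.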

Data set [6] can be described thus: Quantum yield measurements versus Acridine Yellow in EtOH. The class given is physicochemical. The method in brief: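 Emission areas integrated over 510–700 nm were compared with Acridine Yellow in ethanol (Φ=0.47), all excited at 460 nm. The comparative equation was normalized to excitation-wavelength absorbance and solvent refractive index.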
Data set [7] concerns the target human serum albumin (Homo sapiens, UniProt P02768). Kind of data set: In vitro fluorescence screening against 84 biologically relevant analytes / 16 proteins. The following applies: 10 μM, 10 mM HEPES pH 7.4, 1% DMSO. The format is binding. The procedure:
F0 is the fluorescence intensity of BDC-9 in HEPES buffer. Values are represented as means (n=4).
Amino-triazolyl-BODIPYs (10 μM) were screened in 10 mM HEPES buffer, pH 7.4, containing 1% DMSO. Fluorescence intensities were measured using a SpectraMax M2 platereader in 384-well plates. Excitation was provided at each compound's excitation range, and emission spectrum was obtained starting from at least 30 nm beyond the excitation wavelength. All the analytes were tested at four serial concentrations.
The fluorescent response of BDC, BDCAC and BDCCA was examined against 84 biologically relevant analytes that were categorized into nine different sets (i.e. pH standards, viscous solutions, genetic macromolecules, peptides, metal ions, redox molecules, nucleic acids, proteins and other metabolites).

The target of data set [8] is HSA (fatty-acid free) (Homo sapiens, UniProt P02768). Kind of data set: Competition with site-selective HSA-binding drugs. The note with it: from competition assays. How it is done:
HSA (fatty-acid free) (0.34 mg/mL, 5 μM) was preincubated for 2 h in phosphate buffer with different concentrations of the drugs (up to 200 μM) before BDC-9 (10 μM) was added. F is the fluorescence intensity at the indicated drug concentration and F0 is the fluorescence intensity with no drug added; λexc.: 460 nm, λem.: 575 nm; values are represented as means and error bars as standard deviations (n=3).
The binding properties of BDC-9 were studied. HSA consists of at least nine binding sites (34-38), amongst which fatty acid (FA) sites 1, 3 and 4 (Sudlow Site II), 5, 6 and 7 (Sudlow Site I) are known to have affinity for drug compounds (31,39-44). […] To verify specific binding and determine the binding site(s) of BDC-9 in HSA, competition assays using drugs binding to the respective sites (e.g. hemin (FA1 site)(71,72), dansyl-L-norvaline (FA3/4 sites) (73), propofol (FA3/4 and FA5 sites) (35), ibuprofen (FA3/4 and FA6 sites) (74) and warfarin (FA7 site) (74) were performed (75).
There have been several reports of fluorescent dyes binding to FA3/4 (48,49,73), FA6 (51) and FA7 (54,55,76) sites. The present invention represents the first known experimentally proven fluorescent dye binding to the FA1 site (76), in which binding is not dependent on contact with bound lipid (72). BDC-9 is therefore a valuable probe for examining the heme region on HSA.

The target of data set [9] is T1, HSA. As to the kind of experiment: Fluorescence response to serial dilutions of HSA. The class given is binding. How it is done: Values are represented as means (n=3).
Mixtures of BDC-9 with HSA were prepared in phosphate buffer (pH 7.3, 1% DMSO) at room temperature and fluorescence measurements were taken after incubation for 2 h unless otherwise stated.

The subject of data set [10] is mixed primary neural cell populations. Kind of data set: Flow cytometry analysis and FACS sorting of mixed primary neural cells. The class given is cell-based, mouse. An excerpt:
Unstained controls are shown in each spectrum from about 0 to about 1 G.
To further analyze this population of compound positive cells, the two populations (Bright and Dim) were sorted out cell re-culture and RNA extraction for gene analysis.

Data set [11] has as its system primary neurons. As to the kind of experiment: Primary brain cell screening platform (neurons, astrocytes, microglia). The class given is cell-based. The following applies: 500 nM, 1 hour. An excerpt: Esterification to MKAA (and possibly other esters) improves permeability into intact live cells while maintaining staining specificity (FIG. 12). The acetylated MKAA undergoes rapid hydrolysis by cellular esterases after crossing the live cell membrane generates the active MKHA compound responsible for the fluorescence response. FIGS. 13 and 14 show the structures of example MKHA compounds that have been synthesized and tested for primary neuron staining.
For neuron probe discovery, a primary brain cell screening platform was utilized, which involved the use of primary neurons, astrocytes and microglia isolated by differential adhesion methods. These cells were prepared alongside one another in 384-well microplates and incubated in duplicate with 5,000 DOFL compounds at 500 nM concentrations for 1 hour at 4-5 days post-isolation (FIG. 15). […] The compound MKHA374-48 is alternately referred to herein as NeuO (pronounced “neo”) for Neuron Orange.

Data set [12] concerns neurons. Kind of data set: Time lapse imaging of in vitro neuronal development. The format is cell-based, mouse. The note with it: 500 nM. The text has this:
The survival of the cells and dye signal is critical in time lapse studies to analyze neuronal development and interaction with other neural cells.

Data set [13] relates to live neurons. As to the kind of experiment: Live cell compound staining and immunostaining of mixed primary neural cell cultures. The format is cell-based, mouse. The note with it: 500 nM, brain cell preparations from P1-P3 mice. How it is done:
Cells were stained with 500 nM of MKHA101-3 (Green) and imaged at 10× magnification before fixing with 4% PFA. They were then permeabilized with 0.1% Triton-X and immunostained with GFAP (Red) and neurons (Green).
Cells were stained with 500 nM of NeuO (Green) and imaged at 10× magnification before fixing with 4% PFA. They were then permeabilized with 0.1% Triton-X and immunostained with β-III-tubulin (Tuji, Yellow), GFAP (Red) and O4).
Using the heterogeneous brain cell preparations from P1-P3 mice, cells that were compound positive were also found to be β-III-tubulin positive (FIG. 17).
Using the heterogeneous brain cell preparations from P1-P3 mice, cells that were compound positive were also found to be β-III-tubulin (Tuji) positive (FIG. 18a). […] NeuO appears to stain all neurons regardless of subtype (FIG. 18b).

For data set [14], the system named is primary neurons. Kind of data set: Neuron viability, MTS cell cytotoxicity assay (Promega). The class given is cell-based, mouse. The note with it: 24 hour incubation, 500 nM or higher. How it is done: Primary neurons were isolated from P1-3 mouse pups by preferential adherence to poly-D-lysine coating. They were left to mature for 5 days before addition of compound at the stipulated concentrations for 24 h. The MTS assay (Promega) was used to assess viability according to manufacturer's instructions.
For long term tracking and downstream functional studies, it is critical that the compound is not cytotoxic towards the cells and that cells remain viable after staining.

T1 sequence (P02768 25-609): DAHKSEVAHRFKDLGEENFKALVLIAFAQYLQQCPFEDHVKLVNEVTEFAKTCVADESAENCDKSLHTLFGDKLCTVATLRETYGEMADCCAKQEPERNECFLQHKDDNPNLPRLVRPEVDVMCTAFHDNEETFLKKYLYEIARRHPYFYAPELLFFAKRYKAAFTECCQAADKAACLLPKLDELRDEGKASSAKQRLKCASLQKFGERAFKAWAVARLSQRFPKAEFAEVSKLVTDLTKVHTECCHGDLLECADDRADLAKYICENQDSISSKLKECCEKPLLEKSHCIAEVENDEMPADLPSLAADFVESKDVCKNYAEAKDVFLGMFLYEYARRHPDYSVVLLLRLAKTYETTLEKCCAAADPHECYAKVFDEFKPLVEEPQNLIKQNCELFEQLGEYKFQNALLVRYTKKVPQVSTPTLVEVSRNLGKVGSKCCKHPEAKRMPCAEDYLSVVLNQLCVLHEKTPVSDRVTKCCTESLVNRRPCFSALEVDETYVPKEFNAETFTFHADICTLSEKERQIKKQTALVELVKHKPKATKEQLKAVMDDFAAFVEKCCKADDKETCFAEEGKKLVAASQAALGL
Sequence of HSA (fatty-acid free) (P02768 25-609): as above
Sequence of human serum albumin (P02768 25-609): as above

As a reminder, the Kd is the equilibrium constant for the complex coming apart. With `Nc1ccc(C2=C3C=CC(N4CCCCC4)=[N+]3[B-](F)(F)n3c2ccc3-n2cc(-c3ccccc3)nn2)cc1` [BDC-9, 10-(4-aminophenyl)-5,5-difluoro-7-(4-phenyl-1H-1,2,3-triazol-1-yl)-3-(piperidin-1-yl)-5H-dipyrrolo[1,2-c:2′,1′-f][1,3,2]diazaborinin-4-ium-5-uide], the “fluorescence intensity versus solvent viscosity” value in [1] was “systematically increased in more viscous alcohols; also recorded: strong correlation between fluorescence intensity and viscosity”. For the same compound, the “selectivity towards HSA versus serum albumins from other species” value in [2] is listed as “marked selectivity towards HSA with marginal response on the other species”. The “correlation between fluorescence response and amount of HSA in urine” value in data set [3] is recorded as “excellent linear correlation”. For the same compound, the Kd in data set [4] was 12.7 ± 0.4 µM. Also, in data set [5] (BDC library, Table 2), the “λmax Absorp.” value stood at 472 nm and the “λmax Emission” value is listed as 581 nm. In addition, the “φ (quantum yield)” value in data set [6] (BDC library, Table 2, excitation 460 nm) is listed as 0.22%. Also, in [7], the “selectivity of fluorescence response among proteins and analytes” value was “remarkable selectivity towards human serum albumin”. Also, the “binding site on HSA” value in data set [8] is listed as “binding to the FA1 site (heme site) of HSA”. The “increase in fluorescence upon binding to HSA” value in [9] (10 μM, phosphate buffer, λexc 460 nm) stood at 220 fold. Besides, the “limit of detection of HSA” value in [9] (S/N=3) amounted to 0.3 µg/mL.
As to `CCCc1cn(C2=[N+]3C(=C(c4ccc(NC(=O)CO)cc4)c4ccc(NCc5ccccc5)n4[B-]3(F)F)C=C2)nn1` [MKHA374-48, 7-(benzylamino)-5,5-difluoro-10-(4-(2-hydroxyacetamido)phenyl)-3-(4-propyl-1H-1,2,3-triazol-1-yl)-5H-dipyrrolo[1,2-c:2′,1′-][1,3,2]diazaborinin-4-ium-5-uide], the “flow cytometry profile of stained mixed neural cell populations” value in [10] was “neuronal population segregating from the main population”. For the same compound, in data set [5] (FIG. 2 normalized spectra), the “absorbance λmax” value came out at 468 nm and the “emission λmax” value was 557 nm. Besides, the “λmax Absorp. (nm)” value in data set [5] (MKHA compounds, absorbance maximum) worked out at 468 nm. Further, the “λmax Emission (nm)” value in [5] (MKHA compounds, fluorescence emission maximum) was 557 nm. Also, the “fluorescence response / selectivity towards primary neurons in screening” value in data set [11] is listed as “superior selectivity towards live neurons compared to the original MKHA101-3”. Besides, in [12], the “time lapse imaging of stained neurons” value is “Bright NeuO stained neurons can be seen migrating from the interior of the sphere”. The “φ (%)” value in data set [6] (MKHA compounds, quantum yield) is 0.3684%. Further, in data set [13], the “staining specificity for neurons over other neural cells” value was “stains the cell bodies and dendrites specifically over other neural cells”. The “effect on cell viability” value in [14] is recorded as “did not affect cell viability significantly”.
